Three molecules from publication PMC7909954 (eLife, 2021) can be followed below.

Each structure is given as a SMILES string. Where two headings read alike, the source gives them in different places.

In assay [1] the target is T1, KOR (Homo sapiens, UniProt P41145). As to the kind of experiment: cell-based. To be noted: for EC50: EC50 cAMP inhibition hKOR; for Emax: HEK-293T, read-out: Emax% cAMP inhibition hKOR.
The target of assay [2] is T1, KOR. The conditions noted are these: for Log RA cAMP hKOR / LogRA Tango hKOR: transduction coefficient log(T/KA).
Assay [3] has as its target T1, KOR. Put plainly: cell-based. To be noted: for Emax: HTLA, read-out: Emax% arrestin recruitment (Tango) hKOR. Background: Activated receptors often draw arrestin, which recruitment assays turn into a signal.
For assay [4], the target named is T2, MOR (Homo sapiens, UniProt P35372).
T2 sequence (P35372 whole entry): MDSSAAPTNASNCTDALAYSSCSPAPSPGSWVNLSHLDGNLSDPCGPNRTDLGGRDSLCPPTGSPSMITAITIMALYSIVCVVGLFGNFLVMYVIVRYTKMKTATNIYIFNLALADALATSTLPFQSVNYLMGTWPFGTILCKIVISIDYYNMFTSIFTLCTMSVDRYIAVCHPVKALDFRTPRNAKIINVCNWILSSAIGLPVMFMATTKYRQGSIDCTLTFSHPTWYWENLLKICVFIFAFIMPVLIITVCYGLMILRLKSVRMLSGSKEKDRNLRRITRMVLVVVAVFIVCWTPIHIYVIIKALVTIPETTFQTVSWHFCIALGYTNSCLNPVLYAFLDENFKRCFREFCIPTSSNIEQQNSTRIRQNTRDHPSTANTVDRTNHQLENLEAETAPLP
Assay [5] concerns the target T2, MOR. Put plainly: cell-based. The conditions noted are these: for Emax: HEK-293T, read-out: Emax% cAMP inhibition hMOR.
In assay [6] the target is T3, mKOR (Mus musculus, UniProt P33534). As to the kind of experiment: biochemical.
T3 sequence (P33534 whole entry): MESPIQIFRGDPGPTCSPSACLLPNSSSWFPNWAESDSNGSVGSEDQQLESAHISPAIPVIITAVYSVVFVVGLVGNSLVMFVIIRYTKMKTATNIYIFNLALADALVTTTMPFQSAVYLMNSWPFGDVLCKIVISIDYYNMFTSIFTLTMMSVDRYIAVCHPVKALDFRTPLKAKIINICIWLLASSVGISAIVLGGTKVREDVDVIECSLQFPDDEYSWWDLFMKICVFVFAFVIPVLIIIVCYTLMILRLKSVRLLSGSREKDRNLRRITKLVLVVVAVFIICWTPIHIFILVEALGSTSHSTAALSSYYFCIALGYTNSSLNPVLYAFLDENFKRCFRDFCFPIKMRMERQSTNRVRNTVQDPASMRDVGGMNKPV
Assay [7] addresses T4, DOR (Homo sapiens, UniProt P41143). As to the kind of experiment: cell-based.
In assay [8] the target is T5, mMOR (Mus musculus, UniProt P42866). As to the kind of experiment: biochemical.
T5 sequence (P42866 whole entry): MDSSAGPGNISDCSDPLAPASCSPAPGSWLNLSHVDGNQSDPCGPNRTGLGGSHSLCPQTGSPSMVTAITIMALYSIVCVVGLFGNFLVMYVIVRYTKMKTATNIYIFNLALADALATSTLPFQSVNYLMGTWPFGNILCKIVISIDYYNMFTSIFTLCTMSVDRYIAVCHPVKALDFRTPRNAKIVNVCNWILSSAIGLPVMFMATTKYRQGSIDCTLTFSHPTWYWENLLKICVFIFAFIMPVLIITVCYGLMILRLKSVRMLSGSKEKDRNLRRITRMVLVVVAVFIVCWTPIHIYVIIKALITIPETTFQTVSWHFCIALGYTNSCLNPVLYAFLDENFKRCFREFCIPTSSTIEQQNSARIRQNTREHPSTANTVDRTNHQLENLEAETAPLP
Assay [9] addresses T3, mKOR. As to the kind of experiment: biochemical. This is another data set of the same source.
The target of assay [10] is T4, DOR. As to the kind of experiment: cell-based. The source holds these as a separate data set.
Assay [11] addresses T6, mDOR (Mus musculus, UniProt P32300). Put plainly: biochemical. The conditions noted are these: read-out: Emax mDOR [35S]GTPγS. Background: Binding of GTPγS marks nucleotide exchange on a G protein.
In assay [12] the target is T2, MOR. As to the kind of experiment: cell-based.
For assay [13], the target named is T5, mMOR. As to the kind of experiment: biochemical. This is another data set of the same source.
The target in assay [14] is rKOR (Rattus norvegicus, UniProt P34975). Put plainly: cell-based.
Sequence of rKOR (P34975 whole entry): as the sequence (P33534 whole entry) above, with D11E, S17A, S51P, A308V counted along it
Assay [15] has as its target T2, MOR. The source holds these as a separate data set.
Assay [16] deals with T6, mDOR. Put plainly: cell-based.
Assay [17] addresses T5, mMOR. As to the kind of experiment: cell-based.
[18] abbreviates: EC50 arrestin recruitment (Tango) hKOR.

T4 sequence (P41143 whole entry): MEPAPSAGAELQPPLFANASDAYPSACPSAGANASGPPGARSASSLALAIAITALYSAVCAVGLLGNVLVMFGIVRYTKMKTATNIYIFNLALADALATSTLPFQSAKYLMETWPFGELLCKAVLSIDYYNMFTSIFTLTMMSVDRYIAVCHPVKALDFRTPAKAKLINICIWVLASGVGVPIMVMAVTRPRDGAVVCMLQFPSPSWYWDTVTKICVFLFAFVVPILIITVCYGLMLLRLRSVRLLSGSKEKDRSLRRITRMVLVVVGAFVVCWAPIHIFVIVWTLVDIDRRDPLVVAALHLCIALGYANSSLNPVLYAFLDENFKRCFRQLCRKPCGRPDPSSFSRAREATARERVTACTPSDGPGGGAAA
T1 sequence (P41145 whole entry): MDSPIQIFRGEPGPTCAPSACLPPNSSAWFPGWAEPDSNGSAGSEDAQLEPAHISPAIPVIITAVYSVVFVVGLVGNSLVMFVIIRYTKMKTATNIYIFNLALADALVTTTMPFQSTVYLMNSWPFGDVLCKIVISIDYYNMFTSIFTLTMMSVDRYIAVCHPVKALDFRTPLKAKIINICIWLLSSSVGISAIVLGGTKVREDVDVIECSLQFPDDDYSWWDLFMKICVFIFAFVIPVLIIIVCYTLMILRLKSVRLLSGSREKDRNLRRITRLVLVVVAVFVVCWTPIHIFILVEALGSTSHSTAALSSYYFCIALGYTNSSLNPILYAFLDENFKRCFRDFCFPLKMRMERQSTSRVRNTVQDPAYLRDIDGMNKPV
T6 sequence (P32300 whole entry): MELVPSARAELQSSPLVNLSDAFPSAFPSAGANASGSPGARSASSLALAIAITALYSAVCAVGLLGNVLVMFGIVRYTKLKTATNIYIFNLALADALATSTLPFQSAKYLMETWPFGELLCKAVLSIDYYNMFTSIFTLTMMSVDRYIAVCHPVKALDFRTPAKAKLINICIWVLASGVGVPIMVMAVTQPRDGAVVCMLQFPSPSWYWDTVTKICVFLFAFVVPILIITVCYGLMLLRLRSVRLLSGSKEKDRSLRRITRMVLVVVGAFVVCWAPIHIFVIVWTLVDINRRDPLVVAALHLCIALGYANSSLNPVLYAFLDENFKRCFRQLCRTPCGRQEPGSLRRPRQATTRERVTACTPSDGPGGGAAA

The EC50 is the concentration giving half of the maximal effect. Higher therefore signals a need for much substance. One may read the Emax as the maximal effect, on the per cent scale that the assay sets. Regarding `NCc1ccc(C(=O)N[C@@H]2CC[C@H]3[C@H]4Cc5ccc(O)c6c5[C@@]3(CCN4CC3CC3)[C@H]2O6)cc1` [MP1209, 4-(Aminomethyl)-N-((4R,4aR,7R,7aR,12bS)−3-(cyclopropylmethyl)−9-hydroxy-2,3,4,4a,5,6,7,7a-octahydro-1H-4,12-methano[1]benzofuro[3,2-e]isoquinolin-7-yl)benzamide], in assay [1], the EC50 was 0.024 nM and the maximal response (Emax) amounted to 100 ± 1.23%. In addition, in assay [2], the “ΔΔlog RA (cAMP-Tango) hKOR” value is reported as -0.238±0.32, the “Log RA cAMP hKOR” value is 10.55±0.06 and the “LogRA Tango hKOR” value amounted to 8.735±0.220. For the same molecule, in assay [2] (vs U50,488h), the “ΔlogRA Tango hKOR” value is 0.368±0.31 and the “ΔlogRA cAMP hKOR” value worked out at 0.13±0.084. In [3], the Emax is 67 ± 3%. This molecule displayed an EC50 in assay [3] (pEC50 arrestin recruitment (Tango) hKOR, ± SEM) of 0.372 nM. Besides, in assay [4], the “arrestin recruitment at hMOR (in words)” value is recorded as “null arrestin recruitment”. Also, the Emax in assay [5] was determined as 98.5 ± 0.96%. In assay [5] (pEC50 cAMP inhibition hMOR), the EC50 is 0.245 nM.

Take `O=C(N[C@@H]1CC[C@H]2[C@H]3Cc4ccc(O)c5c4[C@@]2(CCN3CC2CC2)[C@H]1O5)c1cccc(CO)c1` [MP1210, N-((4R,4aR,7R,7aR,12bS)−3-(cyclopropylmethyl)−9-hydroxy-2,3,4,4a,5,6,7,7a-octahydro-1H-4,12-methano[1]benzofuro[3,2-e]isoquinolin-7-yl)−3-(hydroxymethyl)benzamide]: in assay [1], the EC50 amounted to 0.025 nM and the Emax was 101 ± 1.1%. Moreover, in assay [2], the “ΔΔlog RA (cAMP-Tango) hKOR” value is listed as -0.28±0.19, the “Log RA cAMP hKOR” value turned out to be 10.59±0.06 and the “LogRA Tango hKOR” value amounted to 8.576±0.156. In assay [2] (vs U50,488h), the “ΔlogRA Tango hKOR” value is on record as 0.48±0.18 and the “ΔlogRA cAMP hKOR” value is reported as 0.2±0.081. Further, the EC50 in [3] (setting [18]) came to 1.16 nM. In addition, in [3], the Emax is 63 ± 3.3%. Further, the “arrestin recruitment at hMOR (in words)” value in assay [4] is given as “null arrestin recruitment”. Also, in assay [5], the maximal response (Emax) was found to be 94.6 ± 0.98%. The molecule also had an EC50 in [5] (pEC50 cAMP inhibition hMOR) of 0.155 nM.

The Ki is the dissociation constant of the complex between target and ligand, obtained from inhibition or displacement. Low readings indicate a stronger hold on the target, high ones a looser hold on the target. `CO[C@@]12CC[C@@H](NC(=O)c3cccc(I)c3)C3Oc4c(O)ccc5c4[C@@]31CCN(CC1CC1)C2C5` (stereo partly drawn) [MP1305, N-((4aS,7R,12bS)−3-(Cyclopropylmethyl)−9-hydroxy-4a-methoxy-2,3,4,4a,5,6,7,7a-octahydro-1H-4,12-methanobenzofuro[3,2-e]isoquinolin-7-yl)−3-iodobenzamide]: the EC50 in assay [6] (EC50 mKOR [35S]GTPγS, ± SEM) was 7.4 ± 1.8 nM; in assay [7] (EC50 arrestin recruitment hDOR, Tango) it was 228 nM; in assay [8] (EC50 mMOR [35S]GTPγS, ± SEM), 0.7 ± 0.1 nM; in [10] (EC50 cAMP inhibition hDOR) it was 74.2 nM; in assay [1], 0.72 nM; in assay [12] it was 16.4 nM. Besides, the concentration for a half-maximal effect (EC50) came to 5.04 nM in assay [14]; 25.7 nM in [3] (setting [18]); 40.4 nM in [16] (EC50 G protein activation (BRET) mDOR); 0.74 nM in [17] (EC50 G protein activation (BRET) mMOR); 0.12 nM in [5] (EC50 cAMP inhibition hMOR). Moreover, the maximum response (Emax) in assay [6] (read-out: Emax mKOR [35S]GTPγS) is 42.2 ± 5.3%; in [7] (HTLA, read-out: Emax% arrestin recruitment hDOR), 89 ± 2.8%; in assay [8] (read-out: Emax mMOR [35S]GTPγS) it was 81.2 ± 16%; in [10] (HEK-293T, read-out: Emax% cAMP inhibition hDOR), 71 ± 2.4%; in [1], 102 ± 1.2%; in assay [11] it was 22 ± 0.9%. For the same molecule, the Emax in [12] (HTLA, read-out: Emax% arrestin recruitment (Tango) hMOR) was 21 ± 3%; in assay [14] (HEK-293T, read-out: Emax% G protein activation (BRET) rKOR) it was 35 ± 3%; in assay [3] it was 75 ± 1%; in assay [16] (HEK-293T, read-out: Emax% G protein activation (BRET) mDOR), 105 ± 5.9%; in [17] (HEK-293T, read-out: Emax% G protein activation (BRET) mMOR) it was 72 ± 2%; in assay [5] it was 69 ± 1.8%. Moreover, the Ki stood at 2.5 ± 0.3 nM in assay [9] and 0.25 ± 0.02 nM in assay [13]. Moreover, the “ΔΔlog RA (cAMP-Tango) hKOR” value in assay [2] is 0.55±0.04. For the same molecule, the “Bias factor (cAMP-Tango) hKOR” value in assay [2] (>1 G protein bias, <1 arrestin bias, vs U50,488h) is 4. Further, the “Log RA cAMP hKOR” value in [2] was found to be 9.22±0.012. For the same molecule, the “LogRA Tango hKOR” value in [2] is given as 7.17±0.025. In addition, the “ΔlogRA Tango hKOR” value in assay [2] (vs U50,488h) was -1.341±0.036. For the same molecule, the “ΔlogRA cAMP hKOR” value in assay [2] (vs U50,488h) is -0.79±0.017. Moreover, in [15], the “Bias factor (cAMP-Tango) hMOR” value was 11. Further, the “Log RA cAMP hMOR” value in [15] came to 9.79±0.053. Further, in [15], the “LogRA Tango hMOR” value was 6.89±0.048. Besides, the “ΔlogRA Tango hMOR” value in assay [15] was found to be 0.109±0.049. The “ΔlogRA cAMP hMOR” value in [15] came out at 1.17±0.076. For the same molecule, in assay [15], the “ΔΔlog RA (cAMP-Tango) hMOR” value is listed as 1.059±0.090.
